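The compound was tested at five concentrations on cells cultured in 96-well plates, with a 48-hour exposure period. The concentration for 50% growth inhibition is given as GI50.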 The source made the active and inactive calls. Rule as the data show it: active = GI50 up to about 1.1 µM and inactive = higher. Bounds are passed on as bounds.

This note sets out measurements from ChEMBL document CHEMBL1201862, “PubChem BioAssay data set” (2004).

Among the test systems are DLD-1; DMS-273; KM-20L2; LXFL 529; M19-MEL; SNB-78; XF498; HOP-18; RXF 631.
What all share (assay): NCI-60 cell line screen, 48 h

For `CCN(CCCl)CCCCCNc1c2ccccc2nc2ccc(OC)cc12`, the GI50 with DLD-1 is 0.35 µM (active); with DMS-273, 0.184 µM (active); in the assay with KM-20L2 it was 0.655 µM (active); in the assay on LXFL 529 it was 0.444 µM (active); in the assay with M19-MEL, 0.476 µM (active); in the assay with SNB-78, 0.736 µM (active). In addition, in the assay on XF498, the GI50 was 0.251 µM (active).
Regarding `CCOC(=O)NC(=O)c1cn(CCCOC(=O)CCCCCCCCC(=O)OCCCn2cc(C(=O)NC(=O)OCC)c(=O)n(C)c2=O)c(=O)n(C)c1=O`, the GI50 in the assay on DLD-1, in the assay with DMS-273, in the assay with HOP-18, in the assay on KM-20L2, in the assay with LXFL 529 and with M19-MEL was > 100 µM (inactive) in each case. The values for the GI50 in the assay with RXF 631 and in the assay with XF498 were > 80.7 µM (inactive) and > 54.3 µM (inactive), respectively.
Turning to `C/C(=N\NC(=N)N)C(CN1CCOCC1)C(c1ccccc1)c1c(O)c2ccccc2oc1=O` (centres undefined), the GI50 with DLD-1, in the assay on DMS-273, with HOP-18, in the assay on KM-20L2, in the assay on LXFL 529 and with M19-MEL was > 100 µM (inactive) each time. Besides, the GI50 with SNB-78 is 50.8 µM (inactive); in the assay on XF498 it was > 100 µM (inactive).
For `N#Cc1ccc(Nc2cnc3cc(N)ccc3n2)cc1`, the GI50 is > 100 µM (inactive) in the assay on DLD-1; > 100 µM (inactive) with DMS-273; 94 µM (inactive) with KM-20L2; 59.7 µM (inactive) in the assay with LXFL 529; 89.7 µM (inactive) in the assay on M19-MEL; > 100 µM (inactive) with SNB-78. For the same compound, in the assay with XF498, the GI50 is 74.6 µM (inactive).
`N#CC1=C(N)Oc2c(ccc3cccnc23)C1c1ccccc1` (centres undefined): the GI50 in the assay with DLD-1 was 2.3 µM (inactive); with DMS-273, 0.445 µM (active); with HOP-18, > 100 µM (inactive); in the assay on KM-20L2 it was 0.555 µM (active); in the assay with LXFL 529, 1.7 µM (inactive); with M19-MEL, 1.67 µM (inactive). Also, the results for the GI50 in the assay with SNB-78 and in the assay with XF498 were 1.45 µM (inactive) and 7.98 µM (inactive), respectively.
In the case of `N=C(NNS(=O)(=O)c1ccccc1)Oc1ccc(Br)cc1Br`, the GI50 with DLD-1, with DMS-273, in the assay on HOP-18, in the assay with KM-20L2, with LXFL 529 and in the assay with M19-MEL was > 100 µM (inactive) in each case. Besides, the GI50 with RXF 631, with SNB-78 and in the assay with XF498 was > 100 µM (inactive) each time.
`CCCC/C=C1\CCC(CN2CCCC2)C1=O` (centres undefined): the GI50 in the assay on DLD-1 is 3.76 µM (inactive); in the assay with DMS-273, 16.7 µM (inactive); in the assay with KM-20L2, 14.7 µM (inactive); in the assay on LXFL 529, 1.56 µM (inactive); in the assay on M19-MEL, 16.9 µM (inactive); in the assay with RXF 631, 17.7 µM (inactive). Moreover, the GI50 is 26.4 µM (inactive) in the assay with SNB-78 and 16.1 µM (inactive) in the assay on XF498.
Take `Cc1nc2c(n1CC(C)(C)C)C(=O)c1ccccc1C2=O`: the GI50 was > 100 µM (inactive) in the assay on DLD-1; 76.9 µM (inactive) in the assay with DMS-273; > 100 µM (inactive) in the assay with KM-20L2; > 100 µM (inactive) in the assay with LXFL 529; > 100 µM (inactive) in the assay on SNB-78; > 100 µM (inactive) with XF498.
Take `OCCN(CCO)c1ncnc2c1sc(=S)n2-c1ccccc1`: the GI50 with DLD-1, in the assay with DMS-273, in the assay with HOP-18, with KM-20L2, in the assay with LXFL 529 and with M19-MEL was > 100 µM (inactive) throughout. Besides, the GI50 with SNB-78 and with XF498 was > 100 µM (inactive) in each case.
Regarding `COc1cc2c(cc1OC)C(Cc1ccc(Oc3cc(CC4c5cc(OC)c(OC)cc5CCN4C)ccc3O)cc1)N(C)CC2` (centres undefined), the GI50 in the assay on DLD-1 is 18.7 µM (inactive); with DMS-273 it was 21.7 µM (inactive); in the assay on HOP-18 it was 26.5 µM (inactive); with KM-20L2, 13.1 µM (inactive); in the assay with LXFL 529, 14.8 µM (inactive); in the assay with M19-MEL, 21 µM (inactive). The GI50 in the assay on SNB-78 was 28.5 µM (inactive); in the assay with XF498, 18.3 µM (inactive).
`CCOC(=O)C12CCSC1C1(C#N)C(C#N)=CC2(N=P(c2ccccc2)(c2ccccc2)c2ccccc2)n2c(=O)n(-c3ccccc3)c(=O)n21` (centres undefined): the GI50 in the assay with DLD-1 is 35.9 µM (inactive); in the assay on KM-20L2, 65 µM (inactive); with LXFL 529, 28.8 µM (inactive); with M19-MEL, 33.4 µM (inactive); with RXF 631 it was 70 µM (inactive); in the assay on SNB-78, 68.5 µM (inactive). The GI50 with XF498 is 24.3 µM (inactive).
As for `Cc1cc2c(c(C(N)=O)c1C)-c1cc(Cl)cc(Cl)c1C2=O`, the GI50 with DLD-1, in the assay with DMS-273, in the assay with HOP-18, with KM-20L2, with LXFL 529 and in the assay with M19-MEL was > 100 µM (inactive) throughout. Besides, the GI50 in the assay on SNB-78 was 41.3 µM (inactive).
Take `C/C(CC(=O)Nc1ccc(C)c(C)c1)=N\NC(N)=O`: the GI50 in the assay on DLD-1, in the assay with KM-20L2, in the assay on LXFL 529, in the assay with M19-MEL and with SNB-78 was > 100 µM (inactive) throughout.
As to `Cc1nc(Nc2ccccc2)sc1C(=O)CC(=O)C(=O)NC12CC3CC(CC(C3)C1)C2`, the GI50 is 80.5 µM (inactive) in the assay with DLD-1; > 100 µM (inactive) in the assay on DMS-273; > 100 µM (inactive) in the assay on HOP-18; 80.7 µM (inactive) in the assay on KM-20L2; 99.5 µM (inactive) in the assay with LXFL 529; > 100 µM (inactive) in the assay on M19-MEL. In addition, the GI50 in the assay with SNB-78 and in the assay on XF498 was > 100 µM (inactive) throughout.
Turning to `COc1ccc(/C=N/NC(=O)NCCNCCO)cc1`, the GI50 with DLD-1, in the assay on DMS-273, with HOP-18, in the assay on KM-20L2, in the assay with LXFL 529 and with M19-MEL was > 100 µM (inactive) throughout. Besides, the GI50 in the assay with SNB-78 was > 100 µM (inactive).
With `COC(=O)c1ccc(C(=O)OC)c2nc3cc(Cl)ccc3nc12`, the GI50 with DLD-1, in the assay with DMS-273, with HOP-18, in the assay on KM-20L2, in the assay on LXFL 529 and in the assay on M19-MEL was > 100 µM (inactive) in each case. Further, the GI50 in the assay with RXF 631 and in the assay on XF498 was > 100 µM (inactive) throughout.
For `Cc1ccc(/C=C/C(=O)c2sc(-c3cccnc3)nc2C)cc1`, the GI50 in the assay with DLD-1, in the assay on DMS-273, in the assay on HOP-18, in the assay on KM-20L2, in the assay with M19-MEL and in the assay on RXF 631 was > 100 µM (inactive) each time. The GI50 with SNB-78 is > 100 µM (inactive).
For the compound `Cc1nc2nnc(C)n2c2c1C(=O)Nc1ccccc1N2`, the GI50 in the assay on DLD-1, with DMS-273, with HOP-18, in the assay on KM-20L2, in the assay on LXFL 529 and in the assay with M19-MEL was > 100 µM (inactive) each time. Also, the GI50 in the assay on SNB-78 and in the assay on XF498 was > 100 µM (inactive) throughout.
`CCOC(=O)C1=C(C)N(NC(=O)Nc2ccccc2)C2(N)N(NC(=O)Nc3ccccc3)C(C)=C(C(=O)OCC)C12C#N` (centres undefined): the GI50 with DLD-1 is 19.4 µM (inactive); in the assay on DMS-273, 17 µM (inactive); in the assay on HOP-18 it was 16.3 µM (inactive); with KM-20L2, 18.7 µM (inactive); in the assay with LXFL 529, 18.6 µM (inactive); in the assay on M19-MEL, 17.8 µM (inactive). For the same compound, the GI50 with SNB-78 was 19.4 µM (inactive).
With `Cc1nc(O)nc(CC(O)(c2ccccc2)c2ccccc2)c1-c1ccccc1`, the GI50 in the assay with DLD-1, in the assay with DMS-273, in the assay on HOP-18, in the assay on KM-20L2, in the assay with LXFL 529 and in the assay with M19-MEL was > 100 µM (inactive) each time. The GI50 with RXF 631 and in the assay with SNB-78 was > 100 µM (inactive) in each case.
In the case of `CCOC(=O)[C@H]1Nc2ccc(OC)cc2C2c3ccccc3CC21` (some centres undefined), the GI50 in the assay on DLD-1, in the assay with DMS-273, with KM-20L2, with LXFL 529, with M19-MEL and in the assay with RXF 631 was > 100 µM (inactive) each time. Also, the GI50 in the assay on SNB-78 and in the assay with XF498 was > 100 µM (inactive) in each case.
For `CN(C)c1ccc(/C=C2\C=Cc3ccccc32)cc1`, the GI50 with DLD-1 was 51.8 µM (inactive); in the assay on DMS-273, 36.7 µM (inactive); with HOP-18, > 100 µM (inactive); in the assay with KM-20L2 it was 42.6 µM (inactive); in the assay on LXFL 529, 56.4 µM (inactive); in the assay with M19-MEL, > 100 µM (inactive).
In the case of `CC1=NN(C(=O)c2ccncc2)C(=O)C1/N=N/c1ccc(F)cc1` (centres undefined), the GI50 in the assay with DLD-1 is > 100 µM (inactive); in the assay with DMS-273, 92.5 µM (inactive); in the assay with KM-20L2, > 100 µM (inactive); in the assay on LXFL 529, > 100 µM (inactive); in the assay on M19-MEL, > 100 µM (inactive); with SNB-78, 63.1 µM (inactive). Also, the GI50 with XF498 was > 100 µM (inactive).
For the compound `CS/C(=N/C(=O)c1ccccc1Cl)SCCS/C(=N\C(=O)c1ccccc1Cl)SC`, the GI50 in the assay with DLD-1, in the assay on DMS-273, in the assay on KM-20L2, in the assay with M19-MEL, in the assay on SNB-78 and in the assay on XF498 was > 100 µM (inactive) each time.
With `[N-]=[N+]=NC12CC3C4CC5CC3C(C1)C(C5)C4C2`, the GI50 in the assay on DLD-1, with DMS-273, in the assay on HOP-18, in the assay with LXFL 529, with M19-MEL and in the assay with RXF 631 was > 100 µM (inactive) in each case. The GI50 in the assay on SNB-78 and in the assay with XF498 was > 100 µM (inactive) each time.
